Reference: patent publication US12350270B2, “Antimalarial agents” (Merck Sharp & Dohme LLC, priority 2019, dated 2025)

Test system: parasites (ring stage, in human red blood cell culture)
Assay: Parasite LDH growth assay (antiparasite potency, Parasite Assay)
Type: cell-based, Plasmodium falciparum
Settings: 0.7% rings, 2% haematocrit, 72 hours at 37° C., LDH readout of parasite growth
Procedure, shortened: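 Growth was read by an LDH assay after a freeze–thaw cycle (−80 °C overnight, 4 h thaw at RT). Before that, parasites grew with compound for 72 h at 37 °C under gassed, humidified conditions. The input was a ring-stage culture adjusted to 0.7% parasitemia and 2% haematocrit in serum (5%)/albumax (0.5%)-supplemented RPMI-Hepes.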

Q: `CC1(C)CC(=O)N([C@@H]2CCOc3ccc(C(=O)N[C@H]4CC(C)(C)Oc5ccccc54)cc32)C(=N)N1` [Example 106, (4R)-N-[(4S)-2,2-dimethylchroman-4-yl]-4-(2-imino-4,4-dimethyl-6-oxo-hexahydropyrimidin-1-yl)chromane-6-carboxamide] was tested. Which EC50 did it give?
A: 0.0066 µM

Same assay, conditions: Plasmodium falciparum, Erythrocyte, 72 h, 0.7% rings, 2% haematocrit, 72 hours at 37° C., LDH readout of parasite growth

Q: How did the EC50 turn out when `CCC1(CC)CC(=O)N([C@@H]2CCc3ccc(C(=O)N[C@@H]4c5ccccc5C[C@H]4O)cc32)C(=N)N1` [Example 85, (3R)-3-(4,4-diethyl-2-imino-6-oxo-hexahydropyrimidin-1-yl)-N-[(1R,2R)-2-hydroxyindan-1-yl]indane-5-carboxamide] was run?
A: 0.0107 µM

Q: With `CC1(C)CC(=O)N(C2CC(C)(C)c3ccc(C(=O)N[C@@H]4c5ccccc5C[C@H]4O)cc32)C(=N)N1` (stereo partly drawn) [Example 86, N-[(1R,2R)-2-hydroxyindan-1-yl]-3-(2-imino-4,4-dimethyl-6-oxo-hexahydropyrimidin-1-yl)-1,1-dimethyl-indane-5-carboxamide] as the compound, how does the EC50 read?
A: 0.0878 µM

Q: `CC1(C)CC(=O)N([C@H]2c3cc(C(=O)N[C@@H]4c5ccccc5C[C@H]4O)ccc3CC2(C)C)C(=N)N1` [Example 87, N-[(1R,2R)-2-hydroxyindan-1-yl]-3-(2-imino-4,4-dimethyl-6-oxo-hexahydropyrimidin-1-yl)-2,2-dimethyl-indane-5-carboxamide] was tested. Which EC50 did it give?
A: 0.105 µM

Q: How did the EC50 turn out when `CC[C@]1(C)CC(=O)N([C@@H]2C[C@@H](C)c3ccc(C(=O)N[C@@H]4c5ccccc5C[C@H]4O)cc32)C(=N)N1` [Example 88, (1R,3R)-3-[(4R)-4-ethyl-2-imino-4-methyl-6-oxo-hexahydropyrimidin-1-yl]-N-[(1R,2R)-2-hydroxyindan-1-yl]-1-methyl-indane-5-carboxamide] was run?
A: 0.0034 µM

Q: For `C[C@@H]1C[C@@H](N2C(=N)NC(C)(C)CC2=O)c2cc(C(=O)N[C@@H]3c4ccccc4C[C@@]3(C)O)ccc21` [Example 89, (1R,3R)-N-[(1R,2R)-2-hydroxy-2-methyl-indan-1-yl]-3-(2-imino-4,4-dimethyl-6-oxo-hexahydropyrimidin-1-yl)-1-methyl-indane-5-carboxamide], which EC50 is on record?
A: 0.0435 µM

Q: How did the EC50 turn out when `C[C@@H]1C[C@@H](N2C(=N)NC(C)(C)CC2=O)c2cc(C(=O)N[C@@H]3c4ccccc4C[C@]3(C)O)ccc21` [Example 90, (1R,3R)-N-[(1R,2S)-2-hydroxy-2-methyl-indan-1-yl]-3-(2-imino-4,4-dimethyl-6-oxo-hexahydropyrimidin-1-yl)-1-methyl-indane-5-carboxamide] was run?
A: 0.0268 µM

Q: `CC1(C)CC(=O)N(C2c3cc(C(=O)N[C@@H]4c5ccccc5C[C@H]4O)ccc3OC2(C)C)C(=N)N1` (stereo partly drawn) [Example 91, N-[(1R,2R)-2-hydroxyindan-1-yl]-3-(2-imino-4,4-dimethyl-6-oxo-hexahydropyrimidin-1-yl)-2,2-dimethyl-3H-benzofuran-5-carboxamide] was tested. Which EC50 did it give?
A: 0.0452 µM

Q: Which EC50 does the source give for `CCC1(CC)CC(=O)N([C@@H]2CCOc3ccc(C(=O)N[C@@H](CO)c4ccccc4)cc32)C(=N)N1` [Example 92, (4R)-4-(4,4-diethyl-2-imino-6-oxo-hexahydropyimidin-1-yl)-N-[(1R)-2-hydroxy-1-phenyl-ethyl]chromane-6-carboxamide] here?
A: 0.0972 µM

Q: With `CC1(C)CC(=O)N(C2CC(C)(C)c3ccc(C(=O)N[C@@H]4c5ccccc5C[C@@]4(C)O)cc32)C(=N)N1` (stereo partly drawn) [Example 93, N-[(1R,2R)-2-hydroxy-2-methyl-indan-1-yl]-3-(2-imino-4,4-dimethyl-6-oxo-hexahydropyrimidin-1-yl)-1,1-dimethyl-indane-5-carboxamide] as the compound, how does the EC50 read?
A: 0.19 µM

Q: How did the EC50 turn out when `CCC1(CC)CC(=O)N([C@@H]2CCCc3ccc(C(=O)N[C@@H]4c5ccccc5C[C@H]4O)cc32)C(=N)N1` [Example 94, (4R)-4-(4,4-diethyl-2-imino-6-oxo-hexahydropyrimidin-1-yl)-N-[(1R,2R)-2-hydroxyindan-1-yl]tetralin-6-carboxamide] was run?
A: 0.0019 µM

Q: With `CC[C@]1(C)CC(=O)N([C@@H]2C[C@@H](C)c3ccc(C(=O)N[C@@H]4c5ccccc5C[C@@]4(C)O)cc32)C(=N)N1` [Example 95, (1R,3R)-3-[(4R)-4-ethyl-2-imino-4-methyl-6-oxo-hexahydropyrimidin-1-yl]-N-[(1R,2R)-2-hydroxy-2-methyl-indan-1-yl]-1-methyl-indane-5-carboxamide] as the compound, how does the EC50 read?
A: 0.0088 µM

Q: How did the EC50 turn out when `CC[C@]1(C)CC(=O)N([C@@H]2C[C@@H](C)c3ccc(C(=O)N[C@@H]4c5ccccc5C[C@]4(C)O)cc32)C(=N)N1` [Example 96, (1R,3R)-3-[(4R)-4-ethyl-2-imino-4-methyl-6-oxo-hexahydropyrimidin-1-yl]-N-[(1R,2S)-2-hydroxy-2-methyl-indan-1-yl]-1-methyl-indane-5-carboxamide] was run?
A: 0.0065 µM

Q: How did the EC50 turn out when `CCC1(CC)CC(=O)N([C@@H]2CCOc3ccc(C(=O)N[C@@H]4c5ccccc5C[C@H]4N)cc32)C(=N)N1` [Example 97, (4R)-N-[(1R,2R)-2-aminoindan-1-yl]-4-(4,4-diethyl-2-imino-6-oxo-hexahydropyrimidin-1-yl)chromane-6-carboxamide] was run?
A: 0.019 µM

Q: `CC1(C)CC(=O)N([C@@H]2CCc3ccc(C(=O)N[C@@H]4c5ccccc5OC(C)(C)[C@H]4O)cc32)C(=N)N1` [Example 98, (3R)-N-[(3S,4R)-3-hydroxy-2,2-dimethyl-chroman-4-yl]-3-(2-imino-4,4-dimethyl-6-oxo-hexahydropyrimidin-1-yl)indane-5-carboxamide] was tested. Which EC50 did it give?
A: 0.0015 µM

Q: Which EC50 does the source give for `CC[C@]1(C)CC(=O)N([C@@H]2CCc3ccc(C(=O)N[C@@H]4c5ccccc5OC[C@]4(C)O)cc32)C(=N)N1` [Example 99, (3R)-3-[(4R)-4-ethyl-2-imino-4-methyl-6-oxo-hexahydropyrimidin-1-yl]-N-[(3R,4R)-3-hydroxy-3-methyl-chroman-4-yl]indane-5-carboxamide] here?
A: 0.0042 µM

Q: How did the EC50 turn out when `CC[C@]1(C)CC(=O)N([C@@H]2CCc3ccc(C(=O)N[C@@H]4c5ccccc5OC[C@@]4(C)O)cc32)C(=N)N1` [Example 100, (3R)-3-[(4R)-4-ethyl-2-imino-4-methyl-6-oxo-hexahydropyrimidin-1-yl]-N-[(3S,4R)-3-hydroxy-3-methyl-chroman-4-yl]indane-5-carboxamide] was run?
A: 0.0053 µM

Q: How did the EC50 turn out when `CC1(C)CC(=O)N(C2CC(C)(C)c3ccc(C(=O)N[C@@H]4c5ccccc5OC[C@H]4O)cc32)C(=N)N1` (stereo partly drawn) [Example 101, N-[(3S,4R)-3-hydroxychroman-4-yl]-3-(2-imino-4,4-dimethyl-6-oxo-hexahydropyrimidin-1-yl)-1,1-dimethyl-indane-5-carboxamide] was run?
A: 0.0467 µM

Q: For `CC[C@]1(C)CC(=O)N([C@@H]2C[C@@H](C)Oc3ccc(C(=O)N[C@@H]4c5ccccc5C[C@H]4O)cc32)C(=N)N1` [Example 102, (2R,4R)-4-[(4R)-4-ethyl-2-imino-4-methyl-6-oxo-hexahydropyrimidin-1-yl]-N-[(1R,2R)-2-hydroxyindan-1-yl]-2-methyl-chromane-6-carboxamide], which EC50 is on record?
A: 0.014 µM

Q: Which EC50 does the source give for `C[C@@H]1C[C@@H](N2C(=N)NC(C)(C)CC2=O)c2cc(C(=O)N[C@@H]3c4ccccc4OC[C@]3(C)O)ccc21` [Example 103, (1R,3R)-N-[(3R,4R)-3-hydroxy-3-methyl-chroman-4-yl]-3-(2-imino-4,4-dimethyl-6-oxo-hexahydropyrimidin-1-yl)-1-methyl-indane-5-carboxamide] here?
A: 0.0061 µM

Q: Which EC50 does the source give for `C[C@@H]1C[C@@H](N2C(=N)NC(C)(C)CC2=O)c2cc(C(=O)N[C@@H]3c4ccccc4OC[C@@]3(C)O)ccc21` [Example 104, (1R,3R)-N-[(3S,4R)-3-hydroxy-3-methyl-chroman-4-yl]-3-(2-imino-4,4-dimethyl-6-oxo-hexahydropyrimidin-1-yl)-1-methyl-indane-5-carboxamide] here?
A: 0.005 µM

Q: Which EC50 does the source give for `CCC1(CC)CC(=O)N(C2Cc3ccc(C(=O)N[C@@H]4c5ccccc5OC[C@@]4(C)O)cc32)C(=N)N1` (stereo partly drawn) [Example 105, 8-(4,4-diethyl-2-imino-6-oxo-hexahydropyrimidin-1-yl)-N-[(3S,4R)-3-hydroxy-3-methyl-chroman-4-yl]bicyclo[4.2.0]octa-1(6),2,4-triene-3-carboxamide] here?
A: 0.0088 µM

Q: Which EC50 does the source give for `CC1(C)CC(=O)N(C2c3cc(C(=O)N[C@@H]4c5ccccc5C[C@@]4(C)O)ccc3OC2(C)C)C(=N)N1` (stereo partly drawn) [Example 107, N-[(1R,2R)-2-hydroxy-2-methyl-indan-1-yl]-3-(2-imino-4,4-dimethyl-6-oxo-hexahydropyrimidin-1-yl)-2,2-dimethyl-3H-benzofuran-5-carboxamide] here?
A: 0.222 µM

Q: `CC1(C)CC(=O)N(C2c3cc(C(=O)N[C@@H]4c5ccccc5C[C@]4(C)O)ccc3OC2(C)C)C(=N)N1` (stereo partly drawn) [Example 108, N-[(1R,2S)-2-hydroxy-2-methyl-indan-1-yl]-3-(2-imino-4,4-dimethyl-6-oxo-hexahydropyrimidin-1-yl)-2,2-dimethyl-3H-benzofuran-5-carboxamide] was tested. Which EC50 did it give?
A: 0.0743 µM

Q: `CO[C@@H]1COc2ccccc2[C@H]1NC(=O)c1ccc2c(c1)[C@H](N1C(=N)NC(C)(C)CC1=O)CCO2` [Example 109, (4R)-4-(2-imino-4,4-dimethyl-6-oxo-hexahydropyrimidin-1-yl)-N-[(3S,4R)-3-methoxychroman-4-yl]chromane-6-carboxamide] was tested. Which EC50 did it give?
A: 0.014 µM

Q: `COC1COc2ccc(C(=O)N[C@@H]3c4ccccc4C[C@H]3O)cc2C1N1C(=N)NC(C)(C)CC1=O` (stereo partly drawn) [Example 110, N-[(1R,2R)-2-hydroxyindan-1-yl]-4-(2-imino-4,4-dimethyl-6-oxo-hexahydropyrimidin-1-yl)-3-methoxy-chromane-6-carboxamide] was tested. Which EC50 did it give?
A: 0.06 µM

Q: For `CCC1(CC)CC(=O)N([C@@H]2CCOc3ccc(C(=O)N[C@@H](C)c4ccccc4OC)cc32)C(=N)N1` [Example 111, (4R)-4-(4,4-diethyl-2-imino-6-oxo-hexahydropyrimidin-1-yl)-N-[(1S)-1-(2-methoxyphenyl)ethyl]chromane-6-carboxamide], which EC50 is on record?
A: 0.09 µM

Q: `CC1(C)CC(=O)N([C@@H]2CCOc3ccc(C(=O)N[C@@H]4c5cc(F)ccc5OC[C@H]4O)cc32)C(=N)N1` [Example 112, (4R)-N-[(3S,4R)-6-fluoro-3-hydroxy-chroman-4-yl]-4-(2-imino-4,4-dimethyl-6-oxo-hexahydropyrimidin-1-yl)chromane-6-carboxamide] was tested. Which EC50 did it give?
A: 0.0114 µM
